Experimental data from patent US20240173432A1, “Compositions and Methods for Treatment of Myotonic Dystrophy Type 1 with CRISPR/SluCas9” (Vertex Pharmaceuticals Incorporated, priority 2021, published 2024).

system: CAG foci in primary DM1 patient myoblasts; assay: Single-cut screening: CAG foci staining; format: cell-based, human; conditions: single sgRNA, DNA-PKi treated
Procedure, shortened: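 Primary DM1 patient myoblasts were PFA-fixed and hybridized with […] (1 ng/μL, 15 min at 80° C) in 30% formamide/2×SSC, followed by anti-MBNL1 immunostaining and Hoechst counterstain. CAG RNA foci were quantified by high-content confocal imaging after single-cut SuCas9 sgRNA editing.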

Sequence | % of CAG foci positive nuclei (DNA-PKi)
CAGTGCATCCAAAACGTGGATT (guide RNA; chemistry not fully specified) [SluD75] | 1.9%
CAGTTCACAACCGCTCCGAGCG (guide RNA; chemistry not fully specified) [SluU23] | 1.53%
CCAAAACGTGGATTGGGGTTGT (listed as DNA, chemistry not fully specified) [SluD73] | 2.33%
CCACGCTCGGAGCGGTTGTGAA (guide RNA; chemistry not fully specified) [SluU24] | 1.56%
CCAGCCGGCTCCGCCCGCTTCG (listed as DNA, chemistry not fully specified) [SluD56] | 2.91%
CCAGGCTGAGGCCCTGACGTGG (listed as DNA, chemistry not fully specified) [SluD06] | 1.35%
CCAGTTCACAACCGCTCCGAGC (guide RNA; chemistry not fully specified) [SluU22] | 1.28%
CCATCCACGTCAGGGCCTCAGC (guide RNA; chemistry not fully specified) [SluD08] | 1.22%
CCCAACAACCCCAATCCACGTT (guide RNA; chemistry not fully specified) [SluD70] | 2.45%

same assay, conditions: single sgRNA, vehicle

Sequence | % of CAG foci positive nuclei (Vehicle)
CAGTGCATCCAAAACGTGGATT (guide RNA; chemistry not fully specified) [SluD75] | 1.56%
CAGTTCACAACCGCTCCGAGCG (guide RNA; chemistry not fully specified) [SluU23] | 1%
CCAAAACGTGGATTGGGGTTGT (listed as DNA, chemistry not fully specified) [SluD73] | 2.52%
CCACGCTCGGAGCGGTTGTGAA (guide RNA; chemistry not fully specified) [SluU24] | 1%
CCAGCCGGCTCCGCCCGCTTCG (listed as DNA, chemistry not fully specified) [SluD56] | 1.04%
CCAGGCTGAGGCCCTGACGTGG (listed as DNA, chemistry not fully specified) [SluD06] | 3.12%
CCAGTTCACAACCGCTCCGAGC (guide RNA; chemistry not fully specified) [SluU22] | 0.96%
CCATCCACGTCAGGGCCTCAGC (guide RNA; chemistry not fully specified) [SluD08] | 5%
CCCAACAACCCCAATCCACGTT (guide RNA; chemistry not fully specified) [SluD70] | 2.33%

system: CUG foci in primary DM1 patient myoblasts; assay: Single-cut screening: FISH staining of CUG RNA foci; format: cell-based, human; conditions: single sgRNA; primary DM1 patient myoblasts; DNA-PKi treated
Procedure, shortened: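 CD56-purified primary DM1 patient myoblasts nucleofected with SluCas9:sgRNA RNP (30:90 pmol, single-cut), then DMSO or 3 μM DNA-PK inhibitor for 48 h. At 72 h post-nucleofection, cells fixed and stained for CUG foci with Cy3-PNA(CAG)5 probe (1 ng/μL, 80 °C), co-stained for MBNL1 and Hoechst, imaged by high-content confocal microscopy.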

Sequence | % of CUG foci free nuclei (DNA-PKi)
CAGTGCATCCAAAACGTGGATT (guide RNA; chemistry not fully specified) [SluD75] | 22.6%
CAGTTCACAACCGCTCCGAGCG (guide RNA; chemistry not fully specified) [SluU23] | 29.8%
CCAAAACGTGGATTGGGGTTGT (listed as DNA, chemistry not fully specified) [SluD73] | 32.52%
CCACGCTCGGAGCGGTTGTGAA (guide RNA; chemistry not fully specified) [SluU24] | 50.23%
CCAGCCGGCTCCGCCCGCTTCG (listed as DNA, chemistry not fully specified) [SluD56] | 31.7%
CCAGGCTGAGGCCCTGACGTGG (listed as DNA, chemistry not fully specified) [SluD06] | 23.09%
CCAGTTCACAACCGCTCCGAGC (guide RNA; chemistry not fully specified) [SluU22] | 50.21%
CCATCCACGTCAGGGCCTCAGC (guide RNA; chemistry not fully specified) [SluD08] | 48.28%
CCCAACAACCCCAATCCACGTT (guide RNA; chemistry not fully specified) [SluD70] | 30.47%

same assay, conditions: single sgRNA; primary DM1 patient myoblasts; vehicle

Sequence | % of CUG foci free nuclei (Vehicle)
CAGTGCATCCAAAACGTGGATT (guide RNA; chemistry not fully specified) [SluD75] | 11.9%
CAGTTCACAACCGCTCCGAGCG (guide RNA; chemistry not fully specified) [SluU23] | 11.23%
CCAAAACGTGGATTGGGGTTGT (listed as DNA, chemistry not fully specified) [SluD73] | 12.95%
CCACGCTCGGAGCGGTTGTGAA (guide RNA; chemistry not fully specified) [SluU24] | 20.62%
CCAGCCGGCTCCGCCCGCTTCG (listed as DNA, chemistry not fully specified) [SluD56] | 13.88%
CCAGGCTGAGGCCCTGACGTGG (listed as DNA, chemistry not fully specified) [SluD06] | 24.51%
CCAGTTCACAACCGCTCCGAGC (guide RNA; chemistry not fully specified) [SluU22] | 27.56%
CCATCCACGTCAGGGCCTCAGC (guide RNA; chemistry not fully specified) [SluD08] | 27.09%
CCCAACAACCCCAATCCACGTT (guide RNA; chemistry not fully specified) [SluD70] | 22.75%

system: 3′ UTR of the human DMPK gene; assay: Single-cut screening: indel editing efficiency by Sanger sequencing and ICE analysis in primary DM1 patient myoblasts; format: cell-based; conditions: single SluCas9 sgRNA RNP in primary DM1 patient myoblasts; Sanger sequencing and ICE analysis; vehicle-treated samples
Method: Genomic DNA of DM1 myoblasts was isolated with the Kingfisher Flex purification system (Thermal Fisher) in 96-well format following the manufacturer's instruction. The DMPK 3′ UTR region was amplified using GoTaq Green Master Mix (Promega) and PCR primers flanking the 3′ UTR region. […] Amplification was conducted using the following cycling parameters: 1 cycle at 95° C. for 2 min; 40 cycles of 95° C. for 30 sec, 63° C. for 30 sec, and 72° C. for 90 sec; 1 cycle at 72° C. for 5 min. Only the wild type allele is amplified by the PCR reaction. The PCR products were analyzed on the TapeStation system with High Sensitivity D5000 ScreenTape (Agilent Technologies).
PCR products were purified and sequenced by Sanger sequencing. […] Indel values were estimated using the ICE analysis algorithm (Synthego) with the chromatogram files obtained from Sanger sequencing.
RNPs were assembled with recombinant SluCas9 protein and chemically modified sgRNAs at a ratio of 1:3 (protein:sgRNA). For SINGLE-cut screening, RNP complexes were assembled with 30 pmol of SluCas9 and 90 pmol of sgRNA in P5 Primary Cell Nucleofector Solution (Lonza). After incubation at room temperature for 20 minutes, 10 μL of RNP complex were mixed with two hundred thousand of primary myoblasts resuspended in 10 μL of P5 Nucleofector Solution. For DOUBLE-cut screening, RNP complexes were first assembled for individual sgRNAs with 20 pmol of SluCas9 protein and 60 pmol of sgRNAs in 5 μL of P5 Nucleofector Solution. After incubation at room temperature for 20 minutes, the two RNP complexes (one for upstream sgRNA and one for downstream sgRNA) were mixed at 1:1 ratio and then further mixed with two hundred thousand of primary myoblasts resuspended in 10 μL of P5 Nucleofector Solution.
The Nucleofector 96-well Shuttle System (Lonza) was used to deliver the SluCa9/sgRNA RNPs into primary DM1 patient myoblasts using the nucleofection program CM138. […] 72 hrs post nucleofection, two wells of DMSO-treated myoblasts and two wells of DNA-PKi-treated myoblasts from each nucleofection were harvested for genomic DNA extraction using the Kingfisher Flex purification system (Thermal Fisher), whereas one well of DMSO-treated myoblasts and one well of DNA-PKi-treated myoblasts were stained for RNA foci by FISH staining.
To assess the efficiency of individual SluCas9 sgRNAs for inducing indel editing and CTG repeat excision, single-cut screening was performed in which individual SluCas9 sgRNAs and recombinant SluCas9 protein were assembled into ribonucleoprotein (RNP) and delivered into primary DM1 patient myoblasts. […] Seventy-two (72) hrs post nucleofection, myoblasts were subjected to either genomic DNA isolation or RNA foci staining by fluorescence in situ hybridization (FISH).
Sanger sequencing and ICE analysis were then performed to quantify the frequency of indels induced by individual sgRNAs. It is of note that only the vehicle-treated samples were used for ICE analysis.
Editing efficiency was assessed by Sanger sequencing and ICE analysis. […] The * indicates the sgRNAs with R2<0.9 in the ICE analysis (in-house QC standard for reliable ICE analysis).

Sequence | Indel efficiency
CAGTGCATCCAAAACGTGGATT (guide RNA; chemistry not fully specified) [SluD75] | 17%
CAGTTCACAACCGCTCCGAGCG (guide RNA; chemistry not fully specified) [SluU23] | 5%
CCAAAACGTGGATTGGGGTTGT (listed as DNA, chemistry not fully specified) [SluD73] | 65%
CCACGCTCGGAGCGGTTGTGAA (guide RNA; chemistry not fully specified) [SluU24] | 28%
CCAGCCGGCTCCGCCCGCTTCG (listed as DNA, chemistry not fully specified) [SluD56] | 70%
CCAGGCTGAGGCCCTGACGTGG (listed as DNA, chemistry not fully specified) [SluD06] | 55%
CCAGTTCACAACCGCTCCGAGC (guide RNA; chemistry not fully specified) [SluU22] | 41%
CCATCCACGTCAGGGCCTCAGC (guide RNA; chemistry not fully specified) [SluD08] | 45%
CCCAACAACCCCAATCCACGTT (guide RNA; chemistry not fully specified) [SluD70] | 14%

same assay, conditions: single-cut; SluCas9 RNP; vehicle-treated samples; 72 hrs post nucleofection; wild-type allele

Sequence | indel efficiency (Sanger sequencing and ICE analysis)
CCAAAACGTGGATTGGGGTTGT (listed as DNA, chemistry not fully specified) [SluD73] | high editing IN4DEL efficiency
CCAGCCGGCTCCGCCCGCTTCG (listed as DNA, chemistry not fully specified) [SluD56] | high editing IN4DEL efficiency
CCAGGCTGAGGCCCTGACGTGG (listed as DNA, chemistry not fully specified) [SluD06] | high editing IN4DEL efficiency
